Experiment: physchem
Settings: octanol/buffer

| logP | Structure (SMILES) |
| --- | --- |
| 5.55 | CNCc1ccc(Cl)c(CN(C(=O)[C@H]2CNCC(=O)N2c2ccc(CCCOc3c(F)ccc(F)c3F)cc2)C2CC2)c1 |
| 4.84 | CNC(=O)OCCc1ccc(Cl)c(CN(C(=O)[C@H]2CNCC(=O)N2c2ccc(OCCOc3c(Cl)cc(C)cc3Cl)nc2)C2CC2)c1 |
| 4.35 | COc1ccccc1COCCCOc1ccc(N2C(=O)CNC[C@@H]2C(=O)N(C)CCCc2ccccc2)cc1 |
| 5.14 | O=C([C@H]1CNCC(=O)N1c1ccc(OCCCOCc2ccccc2)cc1)N(Cc1cccc(Cl)c1)C1CC1 |
| 5.58 | O=C([C@H]1CNCC(=O)N1c1ccc(OCCCOCc2ccccc2)cc1)N(Cc1cc(CNC2CC2)ccc1Cl)C1CC1 |
| 5.66 | O=C([C@H]1CNCC(=O)N1c1ccc(OCCCOCc2ccccc2)cc1)N(Cc1cc(CCNC2CC2)ccc1Cl)C1CC1 |
| 6.46 | O=C([C@H]1CNCC(=O)N1c1ccc(CCCOc2cccc(Cl)c2)cc1)N(Cc1cc(CCNC2CC2)ccc1Cl)C1CC1 |
| 5.9 | O=C([C@H]1CNCC(=O)N1c1ccc(CCCOc2cccc(Cl)c2)cc1)N(Cc1ccccc1Cl)C1CC1 |
| 6.46 | CC(C)(C)OCC(=O)NCCc1ccc(Cl)c(CN(C(=O)[C@H]2CNCC(=O)N2c2ccc(CCCOc3cccc(Cl)c3)cc2)C2CC2)c1 |
| 6.15 | Cc1cc(Cl)c(OCCOc2ccc(N3C(=O)CNC[C@@H]3C(=O)N(Cc3cc(CCNCC(F)F)ccc3Cl)C3CC3)cc2)c(Cl)c1 |
| 5.63 | CNCCc1ccc(Cl)c(CN(C(=O)[C@H]2CNCC(=O)N2c2ccc(CCCOc3c(F)ccc(F)c3F)cc2)C2CC2)c1 |
| 3.7 | COCCCc1ccc(Cl)c(CN(C(=O)[C@H]2CNCC(=O)N2c2cnc(OCCCOCc3ccccc3OC)nc2)C2CC2)c1 |
| 5.11 | O=C([C@H]1CNCC(=O)N1c1ccc(OCCCOCc2ccccc2)cc1)N(Cc1ccccc1Cl)C1CC1 |
| 6.39 | Cc1cc(Cl)c(OCCOc2ccc(N3C(=O)CNC[C@@H]3C(=O)N(Cc3cc(CCNC4CC4)ccc3Cl)C3CC3)cc2)c(Cl)c1 |
| 5.53 | COc1ccccc1COCCCOc1ccc(N2C(=O)CNC[C@@H]2C(=O)N(Cc2cc(CNC3CC3)ccc2Cl)C2CC2)cc1 |
| 5.87 | Cc1cc(Cl)c(OCCOc2ccc(N3C(=O)CNC[C@@H]3C(=O)N(Cc3cccc(Cl)c3)C3CC3)cc2)c(Cl)c1 |
| 3.3 | CCNCCc1ccc(Cl)c(CN(C(=O)[C@H]2CNCC(=O)N2c2cnc(OCCCOCc3ccccc3OC)nc2)C2CC2)c1 |
| 6.22 | O=C([C@H]1CNCC(=O)N1c1ccc(CCCOc2cccc(Cl)c2)cc1)N(Cc1cc(CCNCC(F)F)ccc1Cl)C1CC1 |
| 5.02 | Cc1ccccc1Cc1c(C(=O)N2CCNCC2)c2ccccc2n1-c1ccsc1 |
| 5.49 | CCNC(=O)Cc1ccc(Cl)c(CN(C(=O)[C@H]2CNCC(=O)N2c2ccc(CCCOc3c(F)ccc(F)c3F)cc2)C2CC2)c1 |
| 3.23 | COc1ccccc1COCCCOc1ncc(N2C(=O)CNC[C@@H]2C(=O)N(Cc2cc(CNC(=O)CC(F)(F)F)ccc2Cl)C2CC2)cn1 |
| 5 | O=C(CC(F)(F)F)NCCc1ccc(Cl)c(CN(C(=O)[C@H]2CNCC(=O)N2c2ccc(COC(=O)c3ccccc3)cc2)C2CC2)c1 |
| 3.88 | O=C(OCc1ccc(N2C(=O)CNC[C@@H]2C(=O)NCc2ccccc2Cl)cc1)c1ccccc1 |
| 4.98 | CCNCCc1ccc(Cl)c(CN(C(=O)[C@H]2CNCC(=O)N2c2ccc(COC(=O)c3ccccc3)cc2)C2CC2)c1 |
| 5.34 | CNC(=O)CCc1ccc(Cl)c(CN(C(=O)[C@H]2CNCC(=O)N2c2ccc(OCCOc3c(Cl)cc(C)cc3Cl)cc2)C2CC2)c1 |
| 4.44 | COCCCc1cc(CN(C(=O)[C@H]2CNCC(=O)N2c2ccc(OCCCOCc3ccccc3OC)cc2)C2CC2)c(Cl)cn1 |
| 5.65 | Cc1cc(Cl)c(OCCOc2ccc(N3C(=O)CNC[C@@H]3C(=O)N(Cc3cc(CNC(=O)C4CC4)ccc3Cl)C3CC3)cc2)c(Cl)c1 |
| 4.98 | Cc1cc(Cl)c(OCCOc2ccc(N3C(=O)CNC[C@@H]3C(=O)NCc3ccccc3Cl)cc2)c(Cl)c1 |
| 5.33 | COc1ccccc1COCCCOc1ccc(N2C(=O)CNC[C@@H]2C(=O)N(Cc2cc(CCNC(=O)CC(F)(F)F)ccc2Cl)C2CC2)cc1 |
